Tests used:
Assay in all cases: Invitrogen SelectScreen kinase profiling
Format in all cases: biochemical
Conditions in all cases: 100 nM
FLT3 = target: T1, FLT3 (Homo sapiens, UniProt P36888)
T1 construct: purchased Invitrogen SelectScreen
Experimental: (§1) The FLT3 and VEGFR1/2 Kinase-Glo kinase assays were performed as reported by our earlier study. The VEGFR3 activity analysis was conducted using the same protocol described in the VEGFR1/2 assay. The kinase inhibition profiling and inhibitory activity of FLT3-D835Y, CSF1R, and TRKA were determined by Invitrogen SelectScreen® kinase profiling service (Carlsbad, California, USA).
(§2) BPR1J-340, a urea-substituted 3-phenyl-1H-5-pyrazolylamine-based compound, was designed through chemical modification of sulfonamide series of derivatives (BPR1J-097 series) by a structure-activity relationship (SAR) study (Fig. 1), [32]. For kinase inhibition specificity screening, BPR1J-340 was tested against 59 protein kinases covering the major oncogenic kinases of human protein kinome. […] In addition, BPR1J-340 inhibited TRKA, which is associated with the growth and metastasis of breast cancers, with an IC50 value of 8 nM. Given the high similarity of the ATP binding pockets of FLT3 and the Aurora kinases, the inhibitory activity toward Aurora A and Aurora B were measured. […] Taken together, BPRJ-340 is a selective kinase inhibitor with in vitro activity against FLT3, VEGFR2, VEGFR3 and TRKA receptor tyrosine kinases.

RPS6KA5 (MSK1) = target: T2, RPS6KA5 (MSK1) (Homo sapiens, UniProt O75582)
T2 construct: purchased Invitrogen SelectScreen
Experimental: as §1, §2

AXL = target: T3, AXL (Homo sapiens, UniProt P30530)
T3 construct: purchased Invitrogen SelectScreen
Experimental: as §1, §2

RPS6KA3 (RSK2) = target: T4, RPS6KA3 (RSK2) (Homo sapiens, UniProt P51812)
T4 construct: purchased Invitrogen SelectScreen
Experimental: as §1, §2

LYN A = target: T5, LYN A (Homo sapiens, UniProt P07948)
T5 construct: purchased Invitrogen SelectScreen
Experimental: as §1, §2

CDC42 BPA (MRCKA) = target: T6, CDC42 BPA (MRCKA) (Homo sapiens, UniProt Q5VT25)
T6 construct: purchased Invitrogen SelectScreen
Experimental: as §1, §2

RAF1 (cRAF) Y340D Y341D = target: T7, RAF1 (cRAF) Y340D Y341D (Homo sapiens, UniProt P04049, Y340D/Y341D)
T7 construct: purchased Invitrogen SelectScreen
Experimental: as §1, §2

TYRO3 (RSE) = target: T8, TYRO3 (RSE) (Homo sapiens, UniProt Q06418)
T8 construct: purchased Invitrogen SelectScreen
Experimental: as §1, §2

JAK1 = target: T9, JAK1 (Homo sapiens, UniProt P23458)
T9 construct: purchased Invitrogen SelectScreen
Experimental: as §1, §2

CLK2 = target: T10, CLK2 (Homo sapiens, UniProt P49760)
T10 construct: purchased Invitrogen SelectScreen
Experimental: as §1, §2

CHEK2 (CHK2) = target: T11, CHEK2 (CHK2) (Homo sapiens, UniProt O96017)
T11 construct: purchased Invitrogen SelectScreen
Experimental: as §1, §2

MST1R (RON) = target: T12, MST1R (RON) (Homo sapiens, UniProt Q04912)
T12 construct: purchased Invitrogen SelectScreen
T12 sequence (Q04912 25-1400): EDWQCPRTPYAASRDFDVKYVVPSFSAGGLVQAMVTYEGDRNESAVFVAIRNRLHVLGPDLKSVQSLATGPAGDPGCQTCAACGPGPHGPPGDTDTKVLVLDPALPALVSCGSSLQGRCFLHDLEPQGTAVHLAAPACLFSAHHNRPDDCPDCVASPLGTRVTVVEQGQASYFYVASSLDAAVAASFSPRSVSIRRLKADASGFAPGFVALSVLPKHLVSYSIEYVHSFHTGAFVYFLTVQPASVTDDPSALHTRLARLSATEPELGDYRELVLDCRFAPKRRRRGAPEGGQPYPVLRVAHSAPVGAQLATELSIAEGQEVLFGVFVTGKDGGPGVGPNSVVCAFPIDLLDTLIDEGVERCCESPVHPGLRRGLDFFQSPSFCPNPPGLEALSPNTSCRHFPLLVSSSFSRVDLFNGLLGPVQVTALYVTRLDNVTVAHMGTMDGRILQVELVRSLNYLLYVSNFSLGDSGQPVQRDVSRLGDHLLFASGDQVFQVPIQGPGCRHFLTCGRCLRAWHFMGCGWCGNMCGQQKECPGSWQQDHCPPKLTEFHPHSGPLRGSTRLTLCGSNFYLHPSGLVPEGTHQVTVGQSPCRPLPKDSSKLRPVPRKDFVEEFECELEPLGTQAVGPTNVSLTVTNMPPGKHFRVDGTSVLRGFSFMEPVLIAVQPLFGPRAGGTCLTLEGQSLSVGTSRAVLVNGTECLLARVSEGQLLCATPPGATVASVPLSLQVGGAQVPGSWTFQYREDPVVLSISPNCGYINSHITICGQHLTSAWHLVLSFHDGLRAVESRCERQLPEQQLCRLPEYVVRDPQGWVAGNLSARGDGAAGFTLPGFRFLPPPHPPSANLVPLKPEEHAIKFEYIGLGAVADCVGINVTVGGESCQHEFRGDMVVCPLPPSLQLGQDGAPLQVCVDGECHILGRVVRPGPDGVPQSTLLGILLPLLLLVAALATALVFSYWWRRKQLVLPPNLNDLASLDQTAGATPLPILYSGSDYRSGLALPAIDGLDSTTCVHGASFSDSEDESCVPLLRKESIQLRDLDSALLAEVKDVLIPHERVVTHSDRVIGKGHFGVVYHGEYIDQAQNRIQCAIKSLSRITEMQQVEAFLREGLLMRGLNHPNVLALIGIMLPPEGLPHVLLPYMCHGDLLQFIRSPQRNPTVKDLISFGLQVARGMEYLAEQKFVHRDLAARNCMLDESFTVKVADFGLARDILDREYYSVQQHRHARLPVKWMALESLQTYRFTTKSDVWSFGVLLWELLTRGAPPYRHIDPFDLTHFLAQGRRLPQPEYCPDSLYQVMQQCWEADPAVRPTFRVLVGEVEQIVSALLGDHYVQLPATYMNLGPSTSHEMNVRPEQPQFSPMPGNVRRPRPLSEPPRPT
Experimental: as §1, §2

IRAK4 = target: T13, IRAK4 (Homo sapiens, UniProt Q9NWZ3)
T13 construct: purchased Invitrogen SelectScreen
Experimental: as §1, §2

KIT = target: T14, KIT (Homo sapiens, UniProt P10721)
T14 construct: purchased Invitrogen SelectScreen
Experimental: as §1, §2

NEK1 = target: T15, NEK1 (Homo sapiens, UniProt Q96PY6)
T15 construct: purchased Invitrogen SelectScreen
T15 sequence (Q96PY6 whole entry): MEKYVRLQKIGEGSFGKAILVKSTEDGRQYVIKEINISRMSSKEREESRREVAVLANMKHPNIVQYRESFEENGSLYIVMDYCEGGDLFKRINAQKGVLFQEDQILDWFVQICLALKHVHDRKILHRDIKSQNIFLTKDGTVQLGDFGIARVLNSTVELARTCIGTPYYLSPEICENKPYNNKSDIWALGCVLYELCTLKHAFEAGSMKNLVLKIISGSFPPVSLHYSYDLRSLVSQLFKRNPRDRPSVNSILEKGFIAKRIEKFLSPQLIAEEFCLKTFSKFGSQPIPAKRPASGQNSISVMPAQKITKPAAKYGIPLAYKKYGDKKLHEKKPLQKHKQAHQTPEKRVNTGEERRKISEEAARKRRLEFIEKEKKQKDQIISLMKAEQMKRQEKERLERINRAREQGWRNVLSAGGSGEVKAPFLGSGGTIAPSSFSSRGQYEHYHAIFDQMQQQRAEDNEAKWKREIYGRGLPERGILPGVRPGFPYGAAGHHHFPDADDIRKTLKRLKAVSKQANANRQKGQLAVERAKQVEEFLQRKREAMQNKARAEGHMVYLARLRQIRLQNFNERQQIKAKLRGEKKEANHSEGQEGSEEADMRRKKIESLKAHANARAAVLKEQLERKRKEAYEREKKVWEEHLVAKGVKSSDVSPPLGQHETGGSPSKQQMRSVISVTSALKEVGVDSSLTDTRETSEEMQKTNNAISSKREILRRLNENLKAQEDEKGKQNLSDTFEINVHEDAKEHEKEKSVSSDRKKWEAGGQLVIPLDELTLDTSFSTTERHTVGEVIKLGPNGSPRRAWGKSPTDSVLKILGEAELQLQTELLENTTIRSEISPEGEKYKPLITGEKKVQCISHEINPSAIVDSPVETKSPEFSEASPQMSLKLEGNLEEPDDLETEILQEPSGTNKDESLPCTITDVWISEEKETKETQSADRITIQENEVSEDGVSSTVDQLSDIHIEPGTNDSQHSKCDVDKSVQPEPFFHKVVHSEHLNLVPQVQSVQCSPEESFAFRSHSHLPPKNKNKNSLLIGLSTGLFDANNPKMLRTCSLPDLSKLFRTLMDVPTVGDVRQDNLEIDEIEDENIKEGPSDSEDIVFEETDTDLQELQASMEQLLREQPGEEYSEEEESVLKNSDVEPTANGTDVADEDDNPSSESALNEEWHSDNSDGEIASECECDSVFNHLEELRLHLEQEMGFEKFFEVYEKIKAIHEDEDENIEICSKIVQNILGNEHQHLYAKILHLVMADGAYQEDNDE
Experimental: as §1, §2

RET = target: T16, RET (Homo sapiens, UniProt P07949)
T16 construct: purchased Invitrogen SelectScreen
Experimental: as §1, §2

CHEK1 (CHK1) = target: T17, CHEK1 (CHK1) (Homo sapiens, UniProt O14757)
T17 construct: purchased Invitrogen SelectScreen
Experimental: as §1, §2

MAPK14 (p38 alpha) = target: T18, MAPK14 (p38 alpha) (Homo sapiens, UniProt Q16539)
T18 construct: purchased Invitrogen SelectScreen
Experimental: as §1, §2

TYK2 = target: T19, TYK2 (Homo sapiens, UniProt P29597)
T19 construct: purchased Invitrogen SelectScreen
Experimental: as §1, §2

SRC = target: T20, SRC (Homo sapiens, UniProt P12931)
T20 construct: purchased Invitrogen SelectScreen
Experimental: as §1, §2

BTK = target: T21, BTK (Homo sapiens, UniProt Q06187)
T21 construct: purchased Invitrogen SelectScreen
Experimental: as §1, §2

ERBB2 (HER2) = target: T22, ERBB2 (HER2) (Homo sapiens, UniProt P04626)
T22 construct: purchased Invitrogen SelectScreen
T22 sequence (P04626 23-1255): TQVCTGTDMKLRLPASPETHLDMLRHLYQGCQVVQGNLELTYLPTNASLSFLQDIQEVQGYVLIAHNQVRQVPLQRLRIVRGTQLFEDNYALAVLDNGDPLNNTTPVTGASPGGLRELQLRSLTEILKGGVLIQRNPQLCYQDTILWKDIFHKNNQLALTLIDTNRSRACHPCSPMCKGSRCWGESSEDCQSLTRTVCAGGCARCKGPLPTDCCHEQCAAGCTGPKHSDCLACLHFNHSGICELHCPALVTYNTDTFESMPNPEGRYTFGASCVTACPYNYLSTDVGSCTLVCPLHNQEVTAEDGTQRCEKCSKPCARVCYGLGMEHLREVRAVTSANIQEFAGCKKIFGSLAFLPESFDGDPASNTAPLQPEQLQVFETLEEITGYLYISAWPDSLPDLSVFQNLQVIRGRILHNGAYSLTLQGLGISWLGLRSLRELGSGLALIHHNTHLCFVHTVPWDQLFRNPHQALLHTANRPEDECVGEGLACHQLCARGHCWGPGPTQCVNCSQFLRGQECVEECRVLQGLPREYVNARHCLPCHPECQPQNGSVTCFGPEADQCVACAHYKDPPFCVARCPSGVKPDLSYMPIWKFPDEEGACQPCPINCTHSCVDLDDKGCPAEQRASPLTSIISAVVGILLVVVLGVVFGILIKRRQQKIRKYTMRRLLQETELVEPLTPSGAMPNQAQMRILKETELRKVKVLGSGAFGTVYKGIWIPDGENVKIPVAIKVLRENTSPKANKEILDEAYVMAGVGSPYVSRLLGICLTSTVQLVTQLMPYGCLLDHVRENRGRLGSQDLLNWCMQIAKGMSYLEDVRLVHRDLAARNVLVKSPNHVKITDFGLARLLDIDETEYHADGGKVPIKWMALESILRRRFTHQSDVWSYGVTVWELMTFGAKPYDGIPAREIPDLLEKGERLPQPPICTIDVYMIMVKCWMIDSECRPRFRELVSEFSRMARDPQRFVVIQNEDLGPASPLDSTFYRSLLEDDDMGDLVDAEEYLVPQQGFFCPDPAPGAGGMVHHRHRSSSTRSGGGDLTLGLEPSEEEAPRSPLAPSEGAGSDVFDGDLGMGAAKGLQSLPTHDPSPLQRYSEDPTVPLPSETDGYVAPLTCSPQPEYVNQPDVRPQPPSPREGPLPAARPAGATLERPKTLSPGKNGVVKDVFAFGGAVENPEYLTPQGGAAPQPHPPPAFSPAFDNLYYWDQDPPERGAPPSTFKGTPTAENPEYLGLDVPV
Experimental: as §1, §2

AKT1 (PKB alpha) = target: T23, AKT1 (PKB alpha) (Homo sapiens, UniProt P31749)
T23 construct: purchased Invitrogen SelectScreen
Experimental: as §1, §2

CLK1 = target: T24, CLK1 (Homo sapiens, UniProt P49759)
T24 construct: purchased Invitrogen SelectScreen
Experimental: as §1, §2

AMPK A1/B1/G1 = target: T25, AMPK A1/B1/G1 (Homo sapiens, UniProt Q13131)
T25 construct: purchased Invitrogen SelectScreen
Experimental: as §1, §2

ABL1 T315I = target: T26, ABL1 T315I (Homo sapiens, UniProt P00519, T315I)
T26 construct: purchased Invitrogen SelectScreen
Experimental: as §1, §2

FGFR1 = target: T27, FGFR1 (Homo sapiens, UniProt P11362)
T27 construct: purchased Invitrogen SelectScreen
Experimental: as §1, §2

PDGFRB (PDGFR beta) = target: T28, PDGFRB (PDGFR beta) (Homo sapiens, UniProt P09619)
T28 construct: purchased Invitrogen SelectScreen
Experimental: as §1, §2

PDGFRA (PDGFR alpha) = target: T29, PDGFRA (PDGFR alpha) (Homo sapiens, UniProt P16234)
T29 construct: purchased Invitrogen SelectScreen
Experimental: as §1, §2

SGK2 = target: T30, SGK2 (Homo sapiens, UniProt Q9HBY8)
T30 construct: purchased Invitrogen SelectScreen
T30 sequence (Q9HBY8 whole entry): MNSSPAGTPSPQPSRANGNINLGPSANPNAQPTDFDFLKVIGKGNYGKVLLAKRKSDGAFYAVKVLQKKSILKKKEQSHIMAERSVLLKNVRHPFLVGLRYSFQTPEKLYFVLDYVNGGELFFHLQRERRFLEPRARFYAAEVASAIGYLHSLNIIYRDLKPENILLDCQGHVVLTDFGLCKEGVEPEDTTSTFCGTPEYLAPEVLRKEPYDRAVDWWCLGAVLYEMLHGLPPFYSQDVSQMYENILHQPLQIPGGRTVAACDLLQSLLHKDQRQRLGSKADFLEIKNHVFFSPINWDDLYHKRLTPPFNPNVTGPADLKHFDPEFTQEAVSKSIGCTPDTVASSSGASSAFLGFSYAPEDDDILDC
Experimental: as §1, §2

RPS6KA2 (RSK3) = target: T31, RPS6KA2 (RSK3) (Homo sapiens, UniProt Q15349)
T31 construct: purchased Invitrogen SelectScreen
Experimental: as §1, §2

ABL1 = target: T32, ABL1 (Homo sapiens, UniProt P00519)
T32 construct: purchased Invitrogen SelectScreen
Experimental: as §1, §2

NEK2 = target: T33, NEK2 (Homo sapiens, UniProt P51955)
T33 construct: purchased Invitrogen SelectScreen
Experimental: as §1, §2

GSK3A (GSK3 alpha) = target: T34, GSK3A (GSK3 alpha) (Homo sapiens, UniProt P49840)
T34 construct: purchased Invitrogen SelectScreen
T34 sequence (P49840 whole entry): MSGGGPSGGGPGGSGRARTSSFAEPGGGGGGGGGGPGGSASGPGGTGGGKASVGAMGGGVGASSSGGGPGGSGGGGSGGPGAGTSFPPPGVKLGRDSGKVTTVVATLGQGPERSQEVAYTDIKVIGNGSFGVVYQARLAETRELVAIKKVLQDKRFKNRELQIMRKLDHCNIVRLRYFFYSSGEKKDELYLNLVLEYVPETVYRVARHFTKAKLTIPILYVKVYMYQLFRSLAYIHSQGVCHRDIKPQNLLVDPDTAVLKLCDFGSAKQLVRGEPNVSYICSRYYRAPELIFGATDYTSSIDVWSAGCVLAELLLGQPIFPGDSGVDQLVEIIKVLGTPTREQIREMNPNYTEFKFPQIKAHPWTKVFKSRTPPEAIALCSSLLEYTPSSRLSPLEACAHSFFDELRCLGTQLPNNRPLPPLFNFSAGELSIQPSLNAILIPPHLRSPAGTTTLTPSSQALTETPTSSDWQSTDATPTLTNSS
Experimental: as §1, §2

PIM1 = target: T35, PIM1 (Homo sapiens, UniProt P11309)
T35 construct: purchased Invitrogen SelectScreen
Experimental: as §1, §2

AURKC (Aurora C) = target: T36, AURKC (Aurora C) (Homo sapiens, UniProt Q9UQB9)
T36 construct: purchased Invitrogen SelectScreen
T36 sequence (Q9UQB9 whole entry): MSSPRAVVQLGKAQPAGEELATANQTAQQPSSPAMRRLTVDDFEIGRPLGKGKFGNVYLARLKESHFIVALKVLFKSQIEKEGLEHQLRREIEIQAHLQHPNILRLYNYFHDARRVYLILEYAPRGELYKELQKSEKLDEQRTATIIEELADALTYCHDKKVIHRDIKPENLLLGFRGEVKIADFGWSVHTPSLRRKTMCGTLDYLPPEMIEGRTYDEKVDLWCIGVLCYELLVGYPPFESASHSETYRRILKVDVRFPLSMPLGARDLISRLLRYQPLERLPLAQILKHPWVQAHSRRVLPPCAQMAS
Experimental: as §1, §2

For CCc1cc(NC(=O)NCc2ccc(-c3cc(NC(=O)c4ccc(CN5CCN(C)CC5)cc4)[nH]n3)cc2)no1 [BPR1J-340, N1-(3-4-[([(5-ethyl-3-isoxazolyl)amino]carbonylamino)methyl]phenyl-1H-5-pyrazolyl)-4-[(4-methylpiperazino)methyl]benzamide], which inhibition at 0.1 µM (FLT3) is on record?
The inhibition at 0.1 µM was 97%.

What about the inhibition at 0.1 µM (RPS6KA5 (MSK1)) of the same compound?
Its inhibition at 0.1 µM is 16%.

And the inhibition at 0.1 µM (AXL)?
The inhibition at 0.1 µM was -4%.

And the inhibition at 0.1 µM (RPS6KA3 (RSK2))?
Its inhibition at 0.1 µM is 0%.

What about the inhibition at 0.1 µM (LYN A) of the same compound?
The inhibition at 0.1 µM was 17%.

What about the inhibition at 0.1 µM (CDC42 BPA (MRCKA)) of the same compound?
Its inhibition at 0.1 µM is -8%.

What about the inhibition at 0.1 µM (RAF1 (cRAF) Y340D Y341D) of the same compound?
Its inhibition at 0.1 µM is 4%.

And the inhibition at 0.1 µM (TYRO3 (RSE))?
The inhibition at 0.1 µM was 15%.

What about the inhibition at 0.1 µM (JAK1) of the same compound?
Its inhibition at 0.1 µM is -3%.

And the inhibition at 0.1 µM (CLK2)?
The inhibition at 0.1 µM was -7%.

What about the inhibition at 0.1 µM (CHEK2 (CHK2)) of the same compound?
Its inhibition at 0.1 µM is -6%.

And the inhibition at 0.1 µM (MST1R (RON))?
Its inhibition at 0.1 µM is 6%.

And the inhibition at 0.1 µM (IRAK4)?
The inhibition at 0.1 µM was 4%.

And the inhibition at 0.1 µM (KIT)?
Its inhibition at 0.1 µM is 66%.

What about the inhibition at 0.1 µM (NEK1) of the same compound?
Its inhibition at 0.1 µM is -6%.

What about the inhibition at 0.1 µM (RET) of the same compound?
The inhibition at 0.1 µM was 49%.

What about the inhibition at 0.1 µM (CHEK1 (CHK1)) of the same compound?
The inhibition at 0.1 µM was 27%.

What about the inhibition at 0.1 µM (MAPK14 (p38 alpha)) of the same compound?
The inhibition at 0.1 µM was 24%.

And the inhibition at 0.1 µM (TYK2)?
The inhibition at 0.1 µM was 23%.

And the inhibition at 0.1 µM (SRC)?
The inhibition at 0.1 µM was 34%.

And the inhibition at 0.1 µM (BTK)?
The inhibition at 0.1 µM was 7%.

What about the inhibition at 0.1 µM (ERBB2 (HER2)) of the same compound?
Its inhibition at 0.1 µM is 11%.

What about the inhibition at 0.1 µM (AKT1 (PKB alpha)) of the same compound?
Its inhibition at 0.1 µM is -2%.

And the inhibition at 0.1 µM (CLK1)?
Its inhibition at 0.1 µM is 6%.

And the inhibition at 0.1 µM (AMPK A1/B1/G1)?
Its inhibition at 0.1 µM is 30%.

What about the inhibition at 0.1 µM (ABL1 T315I) of the same compound?
Its inhibition at 0.1 µM is 15%.

And the inhibition at 0.1 µM (FGFR1)?
Its inhibition at 0.1 µM is 17%.

What about the inhibition at 0.1 µM (PDGFRB (PDGFR beta)) of the same compound?
Its inhibition at 0.1 µM is 39%.

And the inhibition at 0.1 µM (PDGFRA (PDGFR alpha))?
The inhibition at 0.1 µM was 38%.

What about the inhibition at 0.1 µM (SGK2) of the same compound?
The inhibition at 0.1 µM was 22%.

And the inhibition at 0.1 µM (RPS6KA2 (RSK3))?
The inhibition at 0.1 µM was 9%.

And the inhibition at 0.1 µM (ABL1)?
Its inhibition at 0.1 µM is 7%.

And the inhibition at 0.1 µM (NEK2)?
Its inhibition at 0.1 µM is 2%.

And the inhibition at 0.1 µM (GSK3A (GSK3 alpha))?
Its inhibition at 0.1 µM is -1%.

What about the inhibition at 0.1 µM (PIM1) of the same compound?
The inhibition at 0.1 µM was -5%.

And the inhibition at 0.1 µM (AURKC (Aurora C))?
The inhibition at 0.1 µM was 19%.

Reference: paper PMC3885398, “Evaluation of the Antitumor Effects of BPR1J-340, a Potent and Selective FLT3 Inhibitor, Alone or in Combination with an HDAC Inhibitor, Vorinostat, in AML Cancer” (PLoS ONE, 2014)
